# Source: patent publication EP0264038A1, “Cytostatics containing glycidyl groups” (Henkel Kommanditgesellschaft auf Aktien, priority 1986, dated 1988)
# System: Tumorart P 388 (Leukämie)
# Assay: Cytostatic activity: survival of mice with i.p. implanted P 388 leukemia (NCI protocol 1200)
# Type: in vivo, Mäusen
# Conditions: 9-day treatment, P 388 set i.p. with 10⁶ Zellen/Maus, untreated mean survival 10 days
# Text: Die nachfolgenden Versuche wurden durchgeführt nach Testvorschriften des National Cancer Institute Bethesda, Maryland 200014, veröffentlicht in "Cancer Chemotherapy Reports" Part. 3, Sept. 1972, Vol. 3, Nr. 2.
# Die Substanz wurde als wäßrige 1 %ige Injektionslösung unmittelbar vor der Applikation frisch hergestellt.
# Bei Mäusen wurden gemäß Protokoll 1200 (S. 91 c) die Tumorart P 388 (Leukämie) i.p. mit 10⁶ Zellen/Maus gesetzt. Die unbehandelten Tiere hatten eine mittlere Überlebensdauer von 10 Tagen.
# Mit den behandelten Testtieren, die einer 9-tägigen i.p. Behandlung mit der in Tabelle 1 angegebenen Dosis unterworfen wurden, wurde eine signifikante Verlängerung der Lebensdauer gegenüber der mittleren Überlebensdauer der nicht mit dem Wirkstoff behandelten Tiere erzielt. Die Verlängerungsrate T/C in Abhängigkeit von der Dosierung des Wirkstoffes ist nachtstehend tabellarisch zusammengestellt.
structure (smiles),measurement,setting,value
O=P(CC1CO1)(CC1CO1)CC1CO1 (stereo not drawn) [Triglycidylphosphinoxid],Verlängerungsrate T/C in %,Dosis 15 mg/kg,243%
same,Verlängerungsrate T/C in %,"Dosis 3,75 mg/kg",163%
same,Verlängerungsrate T/C in %,"Dosis 7,5 mg/kg",176%
